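The compound was tested at five concentrations on cells cultured in 96-well plates, with a 48-hour exposure period. Abbreviation: GI50, concentration required for 50% inhibition of growth.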 The source made the active and inactive calls. Cut-off read from the data, not from the text of the source: active = GI50 up to about 1.1 µM and inactive = higher.
Key:
Experiment in all cases: NCI anticancer screen, dose series, 48 h
OVCAR-8 = system: OVCAR-8
Hs-578T = system: Hs-578T
HOP-62 = system: HOP-62
A498 = system: A498
786-0 = system: 786-0
OVCAR-4 = system: OVCAR-4
OVCAR-5 = system: OVCAR-5
PC-3 = system: PC-3
SK-OV-3 = system: SK-OV-3
EKVX = system: EKVX
RPMI-8226 = system: RPMI-8226
SR = system: SR
BT-549 = system: BT-549
SF-539 = system: SF-539
LXFL 529 = system: LXFL 529
TK-10 = system: TK-10
UACC-62 = system: UACC-62
MDA-N = system: MDA-N
T47D = system: T47D
MOLT-4 = system: MOLT-4

Measured: GI50

N#C/C(=C\c1ccc2ccccc2c1)C(=O)c1ccccc1
inactive: OVCAR-8 33.7 µM | Hs-578T 22.2 µM | HOP-62 20.8 µM | A498 > 85.7 µM | 786-0 > 61.8 µM | OVCAR-4 > 100 µM | OVCAR-5 > 100 µM | PC-3 51.5 µM | SK-OV-3 > 46.8 µM | EKVX > 100 µM | RPMI-8226 34.2 µM | SR 37.8 µM | BT-549 52.2 µM | SF-539 > 100 µM | LXFL 529 > 86.7 µM | TK-10 > 100 µM | UACC-62 > 57 µM | MDA-N 44.6 µM | T47D 36 µM | MOLT-4 23.5 µM

Source: ChEMBL document CHEMBL1201862, “PubChem BioAssay data set” (2004)
